Results taken from publication PMC8689225, “Cardiac ryanodine receptor N-terminal region biosensors identify novel inhibitors via FRET-based high-throughput screening” (The Journal of Biological Chemistry, 2021).

What was measured:
Assay type in all cases: cell-based
[1] = test system: rat skeletal muscle fibers; test: Electrically evoked Ca2+ transients in skinned skeletal muscle fibers; conditions: 10 μM FA or 1 mM tetracaine, 1 Hz
Excerpt: Mechanically skinned fibers were isolated, mounted in a custom chamber, and bathed in a resting physiological solution containing rhod-2, as previously described ([21]). The Ca^2+-sensitive dye rhod-2 was used to track cytosolic Ca^2+ transients when exposed to electrical stimulation. Field pulses at 1 Hz frequency and 4 ms in duration were applied across platinum electrodes parallel to the long axis of the fiber. Imaging for electrical stimulation experiments was in xt mode, at a rate of 2 ms.line^−1. DMSO vehicle (0.01%), FA (10 μM), and tetracaine were added to the physiological solution. Each treatment was applied precisely at the seventh successive Ca^2+ transient.

[2] = test system: intact mouse ventricular cardiomyocytes; test: Ca2+ transients in intact ventricular cardiomyocytes paced at 1 Hz
Protocol: Mouse ventricular cardiomyocytes were isolated enzymatically from hearts of male C57BL/6J mouse (10–12 weeks old, Jackson Laboratory) as previously described with minor modifications ([66]). Briefly, mice were injected with heparin (500 U/kg body weight) and anesthetized with isoflurane (2 to 5%) to a verified deep surgical plane, whereupon the heart was excised, resulting in euthanasia by exsanguination. Hearts were excised and retrogradely perfused with constant flow on a Langendorff apparatus (37 °C) with Ca^2+-free normal Tyrode’s solution, gassed with 100% O2. Collagenase type II (Worthington Biochemical Co) and protease type XIV (Sigma-Aldrich) were used for enzymatic digestion. […]
Ca^2+ activity was imaged via confocal microscopy (Bio-Rad, Radiance 2100, 40× objective) in the line scan mode (166 lines/s; ex 488 nm, em >505 nm). Ca^2+ sparks were recorded from ventricular cardiomyocytes permeabilized with saponin (50 μg/ml) for 1 min in internal solution containing (in mM) 10 HEPES, 1 EGTA, 1 free MgCl2 (with free [Ca^2+] adjusted to 50 nM using MaxChelator), 120 K-aspartate, 10 reduced glutathione, 5 ATP, 5 phosphocreatine di-Na, creatine phosphokinase 5 U/ml, and dextran (MW: 40,000) 8% at pH 7.20. […] Ca^2+ spark parameters were analyzed over a 10 s period from each line scan recording. […]

human RyR2 = molecular target: T1, human RyR2 (Homo sapiens, UniProt Q92736); test: [Ca2+]ER load in permeabilized HEK293 cells expressing GFP-hRyR2, mCer-SERCA2a, R-CEPIA1er; conditions: compared to vehicle
T1 construct: expressed in transfected cells; host or cells: HEK293, transient co-transfection with mCer-SERCA2a and R-CEPIA1er
Protocol: The method for measuring of [Ca^2+]ER load-leak balance in HEK293 cells was previously described ([48]). Briefly, HEK293 cells were transiently cotransfected with plasmids encoding GFP-hRyR2, mCer-SERCA2a, and R-CEPIA1er cDNAs. After 48 h of protein expression, transfected cells were used for the confocal experiments. Before each measurement, cells were washed with a solution containing (in mM): 150 K-aspartate, 0.25 MgCl2, 0.1 EGTA, 10 HEPES, pH 7.2. Then, the cellular plasma membranes were permeabilized with 0.005% saponin dissolved in the experimental solution containing (in mM): K-aspartate 100; KCl 15; KH2PO4 5; MgATP 5; EGTA 0.35; CaCl2 0.22; MgCl2 0.75; HEPES 10; dextran (MW: 40,000) 2%, pH 7.2. Free [Ca^2+] and [Mg^2+] were set at 100 nM and 1 mM respectively. After 3 min of saponin incubation, the permeabilized cells were perfused with saponin-free experimental solution.
Changes in [Ca^2+]ER load-leak balance in permeabilized HEK293 cells were monitored using a laser scanning confocal microscope (Radiance 2000 MP, BioRad) equipped with a 40× oil objective lens (N.A. =1.3). […]
Cells were perfused with the experimental solution for 3 min to ensure a steady [Ca^2+]ER signal. […] Fmax was determined upon application of 2 μM ionomycin and 10 mM Ca^2+. Changes in [Ca^2+]ER were calculated according to [Ca^2+]ER = (F−Fmin)/(Fmax−Fmin).

RyR2 = molecular target: T2, RyR2 (Mus musculus, UniProt E9Q401); test: Ca2+ sparks in saponin-permeabilized ventricular cardiomyocytes
T2 construct: endogenous in cells; host or cells: ventricular cardiomyocytes of male C57BL/6J mice, saponin-permeabilized
Protocol: Mouse ventricular cardiomyocytes were isolated enzymatically from hearts of male C57BL/6J mouse (10–12 weeks old, Jackson Laboratory) as previously described with minor modifications ([66]). Briefly, mice were injected with heparin (500 U/kg body weight) and anesthetized with isoflurane (2 to 5%) to a verified deep surgical plane, whereupon the heart was excised, resulting in euthanasia by exsanguination. Hearts were excised and retrogradely perfused with constant flow on a Langendorff apparatus (37 °C) with Ca^2+-free normal Tyrode’s solution, gassed with 100% O2. Collagenase type II (Worthington Biochemical Co) and protease type XIV (Sigma-Aldrich) were used for enzymatic digestion. Ventricular cardiomyocytes were then mechanically dissociated and filtered through a nylon mesh and allowed to sediment in Tyrode’s solution. The [Ca^2+] of the Tyrode’s solution was then raised to 0.5 mM in stepwise fashion, and cardiomyocytes were kept at room temperature in this solution until use. All animal handling and laboratory procedures were in accordance with the approved protocols of the University of California, Davis Institutional Animal Care and Use Committee conforming to the Guide for the Care and Use of Laboratory Animals published by the US National Institutes of Health (eighth edition, 2011).
Ca^2+ activity was imaged via confocal microscopy (Bio-Rad, Radiance 2100, 40× objective) in the line scan mode (166 lines/s; ex 488 nm, em >505 nm). Ca^2+ sparks were recorded from ventricular cardiomyocytes permeabilized with saponin (50 μg/ml) for 1 min in internal solution containing (in mM) 10 HEPES, 1 EGTA, 1 free MgCl2 (with free [Ca^2+] adjusted to 50 nM using MaxChelator), 120 K-aspartate, 10 reduced glutathione, 5 ATP, 5 phosphocreatine di-Na, creatine phosphokinase 5 U/ml, and dextran (MW: 40,000) 8% at pH 7.20. Cardiomyocytes were immediately washed with saponin-free internal solution and then superfused with internal solution (50 nM Ca^2+free) containing the Ca^2+-sensitive indicator, Fluo-4 pentapotassium salt (10 μM, Invitrogen). Ca^2+ spark parameters were analyzed over a 10 s period from each line scan recording. Ca^2+ transients and diastolic Ca^2+ release events were recorded from intact ventricular cardiomyocytes loaded for 30 min at room temperature with Fluo-4 AM (10 μM, Invitrogen) and Pluronic F-127 (0.02%, Invitrogen) followed by wash and de-esterification for 30 min in Tyrode’s solution containing (in mM) NaCl 140, KCl 4, CaCl2 1.8, MgCl2 1, HEPES 5, Na-HEPES 5, and glucose 5.5 at pH 7.40. To evoke Ca^2+ transients, intact cardiomyocytes were paced at 1 Hz in a field stimulation chamber (Warner Instruments) at room temperature. Ca^2+ activity was assessed in paired fashion before and after incubating cardiomyocytes with fusidic acid (FA) for 6 min at each concentration. ImageJ was used for image processing and analysis, and Ca^2+ sparks were analyzed using the SparkMaster plugin ([67]). Chemical reagents were purchased from Sigma-Aldrich unless indicated otherwise.
Statistical analyses were performed using GraphPad Prism 9. Normality was verified using the D’Agostino & Pearson test. Repeated measures (at different FA concentrations) one-way ANOVA with Geisser–Greenhouse correction followed by the Dunnett’s multiple comparison post-hoc test was used for normally distributed data to determine individual differences in matched responses. […]

T2 sequence (E9Q401 whole entry): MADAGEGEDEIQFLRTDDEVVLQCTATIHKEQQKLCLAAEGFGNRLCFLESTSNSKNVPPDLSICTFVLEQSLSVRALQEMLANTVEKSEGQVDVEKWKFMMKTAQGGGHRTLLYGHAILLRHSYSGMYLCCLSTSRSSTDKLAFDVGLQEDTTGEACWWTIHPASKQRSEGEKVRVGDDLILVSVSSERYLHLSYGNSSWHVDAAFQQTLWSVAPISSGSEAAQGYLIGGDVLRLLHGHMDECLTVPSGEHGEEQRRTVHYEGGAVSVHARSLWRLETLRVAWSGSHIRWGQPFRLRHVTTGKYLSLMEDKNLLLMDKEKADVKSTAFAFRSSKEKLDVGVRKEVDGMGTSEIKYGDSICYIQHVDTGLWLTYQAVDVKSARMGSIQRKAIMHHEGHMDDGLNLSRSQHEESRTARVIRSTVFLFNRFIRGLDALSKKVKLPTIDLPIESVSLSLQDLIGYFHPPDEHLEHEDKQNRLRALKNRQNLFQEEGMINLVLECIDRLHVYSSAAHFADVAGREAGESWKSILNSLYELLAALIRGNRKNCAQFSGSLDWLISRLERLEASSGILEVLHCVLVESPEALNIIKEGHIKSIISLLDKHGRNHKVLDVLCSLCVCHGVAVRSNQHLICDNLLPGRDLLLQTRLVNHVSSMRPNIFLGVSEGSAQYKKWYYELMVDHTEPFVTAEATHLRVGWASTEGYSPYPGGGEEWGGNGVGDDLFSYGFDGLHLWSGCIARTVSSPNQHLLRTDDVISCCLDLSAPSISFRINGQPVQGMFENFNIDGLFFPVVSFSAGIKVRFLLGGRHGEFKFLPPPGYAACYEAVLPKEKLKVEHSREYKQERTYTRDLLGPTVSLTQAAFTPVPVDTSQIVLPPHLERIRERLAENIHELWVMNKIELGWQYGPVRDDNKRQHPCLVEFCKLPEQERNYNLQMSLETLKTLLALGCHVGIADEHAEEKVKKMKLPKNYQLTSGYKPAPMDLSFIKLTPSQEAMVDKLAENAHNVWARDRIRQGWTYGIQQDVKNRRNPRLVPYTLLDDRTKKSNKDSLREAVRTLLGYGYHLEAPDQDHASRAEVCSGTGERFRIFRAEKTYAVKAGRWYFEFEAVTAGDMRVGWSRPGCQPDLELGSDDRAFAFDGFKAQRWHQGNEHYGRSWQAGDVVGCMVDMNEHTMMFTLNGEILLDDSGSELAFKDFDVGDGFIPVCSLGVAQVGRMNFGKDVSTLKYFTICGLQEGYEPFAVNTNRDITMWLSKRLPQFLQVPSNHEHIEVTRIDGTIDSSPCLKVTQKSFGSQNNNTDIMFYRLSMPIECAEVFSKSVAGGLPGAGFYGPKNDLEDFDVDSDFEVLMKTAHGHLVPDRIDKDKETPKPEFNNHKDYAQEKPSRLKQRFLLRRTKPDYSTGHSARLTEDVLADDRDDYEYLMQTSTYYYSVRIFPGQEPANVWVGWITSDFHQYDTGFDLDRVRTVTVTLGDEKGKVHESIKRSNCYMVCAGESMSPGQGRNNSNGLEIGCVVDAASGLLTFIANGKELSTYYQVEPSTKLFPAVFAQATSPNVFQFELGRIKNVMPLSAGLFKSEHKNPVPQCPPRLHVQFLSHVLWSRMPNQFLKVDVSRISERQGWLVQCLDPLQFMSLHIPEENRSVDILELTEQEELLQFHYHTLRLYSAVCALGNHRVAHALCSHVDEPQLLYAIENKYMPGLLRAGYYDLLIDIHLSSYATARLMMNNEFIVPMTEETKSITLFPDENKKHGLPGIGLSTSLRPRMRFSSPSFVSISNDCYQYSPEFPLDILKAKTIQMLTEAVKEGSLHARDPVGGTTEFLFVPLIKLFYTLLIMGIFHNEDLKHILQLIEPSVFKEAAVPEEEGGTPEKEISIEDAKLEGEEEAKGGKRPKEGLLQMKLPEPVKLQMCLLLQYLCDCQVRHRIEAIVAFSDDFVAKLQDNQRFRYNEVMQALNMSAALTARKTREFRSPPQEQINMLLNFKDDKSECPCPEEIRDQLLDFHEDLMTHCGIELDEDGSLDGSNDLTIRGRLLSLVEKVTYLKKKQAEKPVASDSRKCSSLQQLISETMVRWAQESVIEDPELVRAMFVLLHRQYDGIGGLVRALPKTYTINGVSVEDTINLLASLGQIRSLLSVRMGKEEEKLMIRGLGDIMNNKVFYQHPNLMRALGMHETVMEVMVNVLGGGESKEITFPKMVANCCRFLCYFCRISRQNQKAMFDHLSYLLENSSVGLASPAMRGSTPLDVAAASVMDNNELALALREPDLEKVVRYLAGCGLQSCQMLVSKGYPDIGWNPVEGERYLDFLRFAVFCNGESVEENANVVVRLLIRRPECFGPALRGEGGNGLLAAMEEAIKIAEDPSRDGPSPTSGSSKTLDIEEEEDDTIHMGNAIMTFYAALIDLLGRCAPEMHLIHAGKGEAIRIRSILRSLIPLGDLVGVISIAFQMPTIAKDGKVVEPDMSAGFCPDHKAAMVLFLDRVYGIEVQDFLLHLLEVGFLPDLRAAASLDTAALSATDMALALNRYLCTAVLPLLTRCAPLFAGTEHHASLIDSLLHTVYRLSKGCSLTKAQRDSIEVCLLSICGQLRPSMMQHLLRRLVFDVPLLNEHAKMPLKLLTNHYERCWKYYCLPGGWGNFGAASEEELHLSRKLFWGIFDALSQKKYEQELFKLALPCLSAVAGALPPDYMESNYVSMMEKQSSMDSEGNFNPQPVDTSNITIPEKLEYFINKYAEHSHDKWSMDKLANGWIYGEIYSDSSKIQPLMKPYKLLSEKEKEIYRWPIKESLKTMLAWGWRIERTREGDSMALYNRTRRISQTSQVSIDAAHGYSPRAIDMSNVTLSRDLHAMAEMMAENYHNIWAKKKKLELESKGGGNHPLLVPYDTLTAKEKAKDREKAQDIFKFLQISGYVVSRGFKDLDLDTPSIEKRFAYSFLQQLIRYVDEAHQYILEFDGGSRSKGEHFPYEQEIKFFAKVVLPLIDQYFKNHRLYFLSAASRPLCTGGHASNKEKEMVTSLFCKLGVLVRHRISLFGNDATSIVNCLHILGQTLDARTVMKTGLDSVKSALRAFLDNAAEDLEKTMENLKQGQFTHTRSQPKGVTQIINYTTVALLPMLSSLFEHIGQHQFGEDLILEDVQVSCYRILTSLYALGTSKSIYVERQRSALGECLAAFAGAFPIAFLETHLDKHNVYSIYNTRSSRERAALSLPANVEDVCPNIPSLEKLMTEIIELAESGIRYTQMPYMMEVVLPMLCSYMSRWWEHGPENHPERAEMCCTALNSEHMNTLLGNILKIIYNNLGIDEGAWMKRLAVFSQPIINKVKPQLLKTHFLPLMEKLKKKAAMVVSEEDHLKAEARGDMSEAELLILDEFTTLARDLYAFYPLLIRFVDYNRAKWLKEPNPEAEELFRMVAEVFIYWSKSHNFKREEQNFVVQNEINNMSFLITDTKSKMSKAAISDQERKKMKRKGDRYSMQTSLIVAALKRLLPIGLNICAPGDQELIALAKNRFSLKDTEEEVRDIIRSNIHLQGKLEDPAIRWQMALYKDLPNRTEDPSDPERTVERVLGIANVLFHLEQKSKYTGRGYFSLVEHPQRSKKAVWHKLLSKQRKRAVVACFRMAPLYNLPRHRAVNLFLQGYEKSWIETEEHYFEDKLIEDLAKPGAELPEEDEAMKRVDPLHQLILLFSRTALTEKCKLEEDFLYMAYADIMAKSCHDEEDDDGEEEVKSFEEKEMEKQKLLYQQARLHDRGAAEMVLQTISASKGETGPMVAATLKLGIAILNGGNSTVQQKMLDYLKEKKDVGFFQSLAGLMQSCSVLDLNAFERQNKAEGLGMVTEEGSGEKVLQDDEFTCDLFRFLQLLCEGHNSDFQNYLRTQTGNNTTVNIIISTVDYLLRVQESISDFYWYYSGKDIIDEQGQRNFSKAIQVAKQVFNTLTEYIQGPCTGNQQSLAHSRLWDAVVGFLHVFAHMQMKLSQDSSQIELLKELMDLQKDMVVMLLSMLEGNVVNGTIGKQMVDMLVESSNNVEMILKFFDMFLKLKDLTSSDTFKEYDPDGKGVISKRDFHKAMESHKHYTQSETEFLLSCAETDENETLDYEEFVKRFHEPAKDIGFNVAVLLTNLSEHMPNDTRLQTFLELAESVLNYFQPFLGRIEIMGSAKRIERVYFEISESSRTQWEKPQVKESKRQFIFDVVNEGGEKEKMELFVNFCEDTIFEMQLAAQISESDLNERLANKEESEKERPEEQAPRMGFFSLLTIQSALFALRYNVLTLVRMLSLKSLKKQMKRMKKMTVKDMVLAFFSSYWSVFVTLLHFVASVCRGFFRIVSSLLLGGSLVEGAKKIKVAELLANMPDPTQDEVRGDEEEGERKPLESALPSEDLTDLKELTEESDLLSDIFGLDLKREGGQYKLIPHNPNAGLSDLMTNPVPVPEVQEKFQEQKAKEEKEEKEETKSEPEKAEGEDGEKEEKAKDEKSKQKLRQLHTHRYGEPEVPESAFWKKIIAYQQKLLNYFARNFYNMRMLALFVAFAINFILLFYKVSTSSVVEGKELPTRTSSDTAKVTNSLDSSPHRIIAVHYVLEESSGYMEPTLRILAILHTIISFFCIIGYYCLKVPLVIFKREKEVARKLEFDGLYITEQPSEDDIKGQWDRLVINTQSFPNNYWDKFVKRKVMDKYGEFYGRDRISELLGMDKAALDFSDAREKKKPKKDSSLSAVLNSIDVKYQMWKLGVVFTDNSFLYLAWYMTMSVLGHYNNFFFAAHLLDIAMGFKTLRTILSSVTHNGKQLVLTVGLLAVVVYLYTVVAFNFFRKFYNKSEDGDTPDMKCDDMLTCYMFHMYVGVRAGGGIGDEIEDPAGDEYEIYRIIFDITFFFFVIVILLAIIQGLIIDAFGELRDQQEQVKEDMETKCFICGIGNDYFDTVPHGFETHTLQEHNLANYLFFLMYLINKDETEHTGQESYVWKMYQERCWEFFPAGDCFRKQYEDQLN

For `CC(=O)O[C@H]1C[C@@]2(C)[C@@H](C[C@@H](O)[C@H]3[C@@]4(C)CC[C@@H](O)[C@@H](C)[C@@H]4CC[C@@]32C)/C1=C(\CCC=C(C)C)C(=O)O` [FA, (2Z)-2-[(3R,4S,5S,8S,9S,10S,11R,13R,14S,16S)-16-acetyloxy-3,11-dihydroxy-4,8,10,14-tetramethyl-2,3,4,5,6,7,9,11,12,13,15,16-dodecahydro-1H-cyclopenta[a]phenanthren-17-ylidene]-6-methylhept-5-enoic acid], the “electrically induced Ca2+ transient amplitude” value [1] was “did not have an effect”, the “cardiomyocytes with arrhythmogenic Ca2+ events (total paired measures)” value ([2]; FA across all concentrations tested (0.01–10 μM), 6 min) was 10 of 12 and the “Ca2+ transient amplitudes” value ([2]; even at very low [FA] (0.01 μM), pacing 1 Hz) was “some diminution”. For the same compound, the “[Ca2+]ER increase” value (human RyR2; 5 μM FA) was 94 ± 17%, the “[Ca2+]ER decrease” value (human RyR2; 10 μM FA) was 24 ± 8% and the “Ca2+ spark signal mass relative to 0 nM FA” value (RyR2; 1 μM FA, p = 0.011) was “decreased significantly”. The “Ca2+ spark signal mass relative to 0 nM FA” value (RyR2; 10 μM FA, p = 0.001) was “decreased significantly”, the “Ca2+ spark frequency over [FA] relative to 0 nM FA” value (RyR2; [Ca2+]i 50 nM, 6 min exposures) was “did not detect significant differences” and the “Ca2+ spark signal mass, meancell slope” value (RyR2; increasing [FA], p = 0.0007) was −0.336 F/F0 × μm × s/log10(μM). For the same compound, the “Ca2+ spark frequency, meancell slope” value (RyR2; increasing [FA], p = 0.115) was −0.082 sparks/100 μm/s/log10(μM).
